Measured values taken from patent EP4364730A1, “PHARMACEUTICAL COMPOSITION COMPRISING L-ACETYL CARNITINE AND BETA-CARYOPHYLLENE” (Chiesi Italia S.p.A., priority 2022, dated 2024).

Tested on: HMC3 cell line
Test: Cell viability test (MTT assay)
Assay type: cell-based, Homo sapiens, human
Details: HMC3 cells, tested 0.039 to 100 µM
Protocol: The American Type Culture Collection's HMC3 (CRL-3304) cell line was grown in the MEM growth medium supplemented with 10% fetal bovine serum (FBS), 100 U/mL penicillin, and 100 µg/mL streptomycin (complete medium). The cells were kept at 37 °C in a 5% CO2 incubator and grown up to 100% confluence before use. In particular, regarding BCP, cells were treated with this substance at concentrations ranging from 0.039 to 100 µM (9 concentrations). Regarding LAC, cells were treated with this substance at concentrations ranging from 0.06 to 30 mM (9 concentrations). […] The MTT cell viability test was performed by seeding 1 × 10^4 cells/well in a 96-multiwell and grown at 37 °C and 5% CO2. The next day, cells were treated with different concentrations of BCP and LAC and their combinations (Mix). […] The formazane crystals were then solubilized with 100 µL DMSO/well for 15 min and the absorbance was measured at the wavelength of 570 nm using a Multiskan™ GO microplate reader (Thermo Scientific Microplate Spectrophotometer). Finally, the cytotoxicity of the substances in combination was evaluated starting from the maximum non-cytotoxic concentrations of each molecule (BCP and LAC alone) (Table 1).

C=C1CC/C=C(\C)CC[C@@H]2[C@@H]1CC2(C)C [BCP, (1R,4E,9S)-4,11,11-trimethyl-8-methylidenebicyclo[7.2.0]undec-4-ene]
maximum non-cytotoxic concentration: 100 µM
